Legend:
Format in all cases: in vivo
[1] = system: Aphis gossypii; assay: Test Example 1: spray on cucumber seedling inoculated with Aphis gossypii; details: topical, 144 h; 500 ppm active ingredient (Formulation Example 5 diluted with water); 20 ml sprayed on cucumber seedling with about 30 Aphis gossypii; six days after spraying
Experimental: On the other hand, on a cucumber seedling (the first true leaf stage) planted in a plastic cup was inoculated with about 30 Aphis gossypii, and leaving it for a day. Twenty ml of each of the above test spray solutions was sprayed on this seedling. Six days after spraying, the number of the surviving Aphis gossypii parasitized on the leaves of the cucumber was examined, and a control value was calculated according to the following equation: Control value (%)={1−(Cb×Tai)/(Cai×Tb))×100 wherein symbols represent as follows: Cb: the number of insects in a non-treated section before treatment, Cai: the number of insects in a non-treated section in observation, Tb: the number of insects in a treated-section before treatment, Tai: the number of insects in a treated-section in observation; wherein the non-treated section represents a section where the test spray solution prepared by diluting the formulation without the present compound in Formulation Example 5 with the same amount of water as in the treated-section was sprayed.

[2] = system: Aphis gossypii; assay: Test Example 3: drench at foot of cucumber seedling, then inoculation with Aphis gossypii; details: soil, 144 h, read-out: Control value
[3] = system: Nilaparvata lugens; assay: Test Example 5: drench at foot of rice seedling, release of Nilaparvata lugens larvae; details: soil, 144 h; 500 ppm active ingredient; rice seedling drenched at its foot with 5 ml, kept 7 days; twenty third-fourth instar larvae of Nilaparvata lugens; examined after 6 days
Experimental: On the other hand, a rice seedling (2 weeks after sowing, the second leaf stage) planted in a plastic cup was drenched at its foot with 5 ml of each of the diluted solutions, and kept in a greenhouse of 25° C. for 7 days. Twenty third-fourth instar larvae of Nilaparvata lugens were released, and further kept in the greenhouse for 6 days, then the number of insect of living Nilaparvata lugens parasitized on the rice was examined, and a control value was calculated according to the following equation: Control value (%)={1−(Cb×Tai)/(Cai×Tb))×100 wherein symbols represent as follows: Cb: the number of insects in a non-treated section before treatment, Cai: the number of insects in a non-treated section in observation, Tb: the number of insects in a treated-section before treatment, Tai: the number of insects in a treated-section in observation; wherein the non-treated section represents a section where the test diluted solution prepared by diluting the formulation without the present compound in Formulation Example 5 with the same amount of water as in the treated-section was used.

[4] = system: Bemisia tabaci; assay: Test Example 6: spray on tomato seedling with Bemisia tabaci instar larvae; details: 168 h; 500 ppm active ingredient; 20 ml/cup sprayed on tomato seedling with hatched Bemisia tabaci instar larvae; after 7 days at 25° C.
Experimental: On the other hand, Bemisia tabaci adult was released on a tomato seedling (the third true leaf stage) planted in a polyethylene cup, and made to lay eggs for about 72 hours. The tomato seedling was kept in a greenhouse for 8 days. When instar larvae hatched from the eggs, the above test spray solution was sprayed in the amount of 20 ml/cup. The cup was kept in a greenhouse at 25° C. After the keeping for 7 days, the number of surviving instar larvae on the tomato leaves was examined, and a control value was calculated according to the following equation: Control value (%)={1−(Cb×Tai)/(Cai×Tb))×100 wherein symbols represent as follows: Cb: the number of insects in a non-treated section before treatment, Cai: the number of insects in a non-treated section in observation, Tb: the number of insects in a treated-section before treatment, Tai: the number of insects in a treated-section in observation; wherein the non-treated section represents a section where the test spray solution prepared by diluting the formulation without the present compound in Formulation Example 5 with the same amount of water as in the treated-section was sprayed.

[5] = system: Adoxophyes orana fasciata; assay: Test Example 8: spray on apple tree, release of Adoxophyes orana fasciata; details: in Malus domestica, 168 h; 500 ppm active ingredient; apple tree sprayed with 20 mL/cup; 60 first-instar Adoxophyes orana fasciata; after 7 days; read-out: Death rate
Experimental: On the other hand, an apple tree was planted in a plastic cup, and grown until the seventh-eighth leaf was spread. The apple tree was sprayed with 20 mL/cup of each of the test spray solution. After the test solution was dried, 60 first-instar Adoxophyes orana fasciata were released, and the cup was covered with a plastic cup upside-down which the bottom was cut off and a filter paper was put thereon. After 7 days, the number of living insects was counted, and a death rate was calculated according to the following equation: Death rate (%)=(Number of dead insects/Number of tested insects)×100

[6] = system: Aphis gossypii; assay: Test Example 2: root immersion of cucumber seedling, then inoculation with Aphis gossypii; details: 168 h; 500 ppm active ingredient; cucumber root part immersed in 5 ml; 30 Aphis gossypii inoculated one day after treatment; examined after further seven days
Experimental: A root part of a cucumber seedling (the first true leaf stage) from which soil had been washed off was immersed in 5 ml of each of the diluted solutions, and one day after treatment, on the cucumber leaf surface was inoculated with 30 Aphis gossypii (whole stage). After further seven days, the number of insect of living Aphis gossypii parasitized on the leaves of the cucumber was examined, and a control value was calculated according to the following equation: Control value (%)={1−(Cb×Tai)/(Cai×Tb))×100 wherein symbols represent as follows: Cb: the number of insects in a non-treated section before treatment, Cai: the number of insects in a non-treated section in observation, Tb: the number of insects in a treated-section before treatment, Tai: the number of insects in a treated-section in observation; wherein the non-treated section represents a section where the test diluted solution prepared by diluting the formulation without the present compound in Formulation Example 5 with the same amount of water as in the treated-section was used.

[7] = system: Nilaparvata lugens; assay: Test Example 4: spray on rice seedling, release of Nilaparvata lugens larvae; details: 144 h; 500 ppm active ingredient; rice seedling sprayed with 10 ml; third-fourth instar larvae of Nilaparvata lugens; after 6 days at 25° C.; read-out: Control value
[8] = 500 ppm active ingredient, cucumber seedling drenched at its foot with 5 ml, kept 7 days at 25° C., 30 Aphis gossypii inoculated, examined after 6 days

Measured: pest or weed control at 500 ppm

CCS(=O)(=O)c1cc(C(F)(F)F)ccc1-c1nc2cc(C(F)(F)F)cnc2[nH]1 [compound 345, 2-(2-ethylsulfonyl-4-trifluoromethyl-phenyl)-6-trifluoromethyl-3H-imidazo[4,5-b]pyridine]
≥ 90%: [1] | [2]; [8] | [3] | [4] | [5]

CCS(=O)(=O)c1cc(C(F)(F)F)ccc1-c1nc2cc(S(=O)(=O)C(F)(F)F)cnc2n1C [compound 302, 2-(2-ethylsulfonyl-4-trifluoromethylphenyl)-3-methyl-6-trifluoromethylsulfonyl-3H-imidazo[4,5-b]pyridine]
≥ 90%: [2]; [8]

CC[S+]([O-])c1c(Cl)cccc1-c1nc2cc(C(F)(F)F)cnc2n1C (stereo not drawn) [Present Compound 89, 2-(3-chloro-2-ethylsulfinylphenyl)-3-methyl-6-trifluoromethyl-3H-imidazo[4,5-b]pyridine]
≥ 90%: [6] | [2]; [8] | [3]

CCS(=O)(=O)c1ccccc1-c1nc2cc(C(F)(F)C(F)(F)C(F)(F)F)cnc2n1C [Present Compound 130, 2-(2-ethylsulfonylphenyl)-6-heptafluoropropyl-3-methyl-3H-imidazo[4,5-b]pyridine]
≥ 90%: [2]; Aphis gossypii | [3]

CCS(=O)(=O)c1cc(-c2ncccn2)ccc1-c1nc2cc(C(F)(F)F)cnc2n1C [compound 333, 2-[2-ethylsulfonyl-4-(pyrimidine-2-yl)-phenyl)-3-methyl-6-trifluoromethyl-3H-imidazo[4,5-b]pyridine]
≥ 90%: [1] | [6] | [2]; [8] | [4]

CCS(=O)(=O)c1ccccc1-c1nc2cc(S(C)(=O)=O)cnc2n1C [compound 254, 2-(2-ethylsulfonylphenyl)-6-methylsulfonyl3-methyl-3H-imidazo[4,5-b]pyridine]
≥ 90%: [6] | [2]; [8]

CCS(=O)(=O)c1c(Cl)cccc1-c1nc2cc(C(F)(F)F)cnc2n1C [Present Compound 90, 2-(3-chloro-2-ethylsulfonylphenyl)-3-methyl-6-trifluoromethyl-3H-imidazo[4,5-b]pyridine]
≥ 90%: [2]; [8] | [3]

CCS(=O)(=O)c1cc(C(F)(F)F)ccc1-c1nc2cc(SC(F)(F)F)cnc2n1C [compound 306, 2-(2-ethylsulfonyl-4-trifluoromethylphenyl)-3-methyl-6-trifluoromethylsulfanyl-3H-imidazo[4,5-b]pyridine]
≥ 90%: [6] | [2]; [8] | [7] | [3]

CCSc1ccccc1-c1nc2cc(SC(F)(F)F)cnc2n1C [Present Compound 161, 2-(2-ethylsulfanyl-phenyl)-3-methyl-6-trifluoromethylsulfanyl-3H-imidazo[4,5-b]pyridine]
≥ 90%: [1] | [7] | [4] | [5]

CCSc1ccccc1-c1nc2cc(C(F)(F)C(F)(F)F)cnc2n1C [Present Compound 55, 2-(2-ethylsulfanylphenyl)-3-methyl-6-pentafluoroethyl-3H-imidazo[4,5-b]pyridine]
≥ 90%: [1] | [6] | [2]; [8] | [7] | [3] | [4]

Reference: patent publication US8853238B2, “Fused heterocyclic compound and use thereof for pest control” (Sumitomo Chemical Company, Limited, priority 2010, dated 2014)
